Experimental data: the METLIN SMRT retention time set (Domingo-Almenara et al. 2019)

Experiment: gradient 5% acetonitrile 3 min, to 50% in 2 min, to 85% in 15 min, held 3 min, 100 µL/min
Conditions: column: Zorbax Extend-C18 2.1 x 50 mm; eluents: water / acetonitrile, 0.1% formic acid
Procedure, shortened: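 Retention times of pure standards were taken from adduct peaks that were selected by computer and manually inspected. Over 3 months, mixtures of ~100 molecules were run by HPLC–quadrupole time-of-flight mass spectrometry in positive and negative ionization mode. The Zorbax Extend-C18 column (2.1 × 50 mm, 1.8 μm) ran at 100 μL/min in water and acetonitrile, each containing 0.1% formic acid, with 40 μL dead volume and 900 μL dwell volume.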

RP-LC retention time [s] | Structure (SMILES)
1080 | CCOC(=O)c1c(NC(=O)CN2CCN(c3ncccn3)CC2)sc2c1CCC2
800 | CCOc1ccc(-c2nc3ncccn3c2NCc2ccc(C)cc2)cc1
650 | CC(C)c1nc2c(c(=O)n1CC(=O)NCc1cccs1)CN(Cc1ccccc1)CC2
655 | CN(C)c1ccc(-c2nc3cnccn3c2Nc2cccc(C(=O)O)c2)cc1
764 | CC(C)N(C(=O)Cn1c(C2CC(=O)N(Cc3ccccc3)C2)nc2ccccc21)C(C)C (centres undefined)
648 | CCNC(=O)c1n[nH]c2c1CN(C(=O)c1cc(F)ccc1F)CC2
656 | O=C(Cc1ccc(Cl)cc1)NC1CCN(c2nnc3ccccn23)CC1
622 | O=C(N[C@H]1C[C@@H]2C[C@H]1N(C(=O)c1ccccn1)C2)c1ccccc1
772 | Cc1cccc(NC(=O)Cn2ccc3ccn(C)c3c2=O)c1
1080 | CCOc1ccccc1-c1noc(-c2nnn3c2COC(c2ccc(OC)cc2)C3)n1 (centres undefined)
575 | CN(C)C(=O)c1ccc2c(c1)nc(CN1CCN(C(=O)c3ccco3)CC1)n2C
855 | O=C(NC1CCN(c2ccccc2)C1=O)c1cccc(Br)c1 (centres undefined)
703 | Cc1cc(=O)n(CC(=O)N2CCCc3ccccc32)c(N2CCCCC2)n1
738 | COc1ncccc1CNC(=O)CCc1ccccc1
884 | CC(C)N(Cc1ccccc1)C(=O)c1cc2c(=O)n3ccccc3nc2n1C
870 | COc1cccc(NC(=O)NC2CCN(c3cc(C)cc(C)c3)C2=O)c1 (centres undefined)
1060 | CC(Oc1ccccc1)c1nc(-c2ccc3nnn(C)c3c2)no1 (centres undefined)
575 | Cc1ncsc1CN1CC(n2cc(C(=O)NCC3CC3)nn2)C1
978 | Cc1cccc(N(C)S(=O)(=O)c2ccsc2-c2nc(C)no2)c1
680 | CCC1CN(CC(=O)NCCN(CC)CC)c2ccccc2S1 (centres undefined)
815 | COc1ccccc1Cn1cc(C(=O)c2ccccc2)c(=O)c2cc3c(cc21)OCCO3
903 | O=C(NCc1csc(-c2ccccc2)n1)C1CCN(S(=O)(=O)c2ccccc2)CC1
856 | COc1cccc(NC(=O)N(C)CCc2noc(COc3ccc(F)cc3)n2)c1

RP-LC retention time [s] | Structure (SMILES)
695 | Cc1ccc(C)c(NC(=O)Nc2ccc3nnc(C)n3c2)c1
852 | Cc1cccc(N2C(=O)NC3CC2(C)Oc2ccccc23)c1 (centres undefined)
1090 | Cc1ccccc1-c1nc(C2CC(=O)N(c3ccc(Cl)cc3)C2)no1 (centres undefined)
815 | COc1ccc(Cc2nnc3sc(Cc4ccc(OC)c(OC)c4)nn23)cc1
773 | O=C(Nc1ccc2c(c1)C(=O)Nc1ccccc1O2)c1ccc2nsnc2c1
665 | Cc1noc(CNC(=O)C2CCN(C(=O)CSc3nc4ccccc4s3)CC2)n1
761 | Cc1noc2ncn(CC(=O)Nc3ccccc3Br)c(=O)c12
574 | O=S(=O)(c1ccccc1Cl)N1CC(COc2ccncc2)C2(CCOCC2)C1 (centres undefined)
795 | O=C(NCc1ccco1)C1CN(C(=O)c2ccccc2)CC12CCCCC2 (centres undefined)
737 | CCN(CC)S(=O)(=O)c1cc(-c2nnc(C)o2)co1
1080 | O=C(C1CCN(c2nc3ccc(-c4ccc(F)cc4)nc3s2)CC1)N1CCCCC1
951 | COc1ccccc1CNC(=O)c1cn(C)nc1S(=O)(=O)N1CCC(C)CC1
1170 | CC1(C)C(=O)N2c3ccccc3C3(CC(N4C(=O)c5ccccc5C4=O)C(=O)O3)C2N1C(=O)OCc1ccccc1 (centres undefined)
1270 | Cc1cc(C)c(S(=O)(=O)N2CCCC2c2nc(-c3ccc(F)cc3)no2)cc1C (centres undefined)
760 | O=C(c1ccc(-c2noc(C3CC3)n2)cc1)N1CCCN(c2nc3ncccc3o2)CC1
961 | CCOc1cc(C)c(C)cc1S(=O)(=O)Nc1ccc(Cl)cn1
981 | O=C(NCCc1c[nH]c2ccc(Cl)cc12)c1cccc(Cn2c(=O)c3cccn3c3cccnc32)c1
747 | CC(C)NC(=O)c1ccc(OCC2CCCN2C(=O)c2ccoc2)cc1 (centres undefined)
1120 | CN(C)c1ccc(/C=C/C(=O)c2cc(Cl)ccc2O)cc1
741 | COc1ccc(-c2nc3cnccn3c2Nc2cccc(C(=O)NCc3ccco3)c2)cc1
1030 | CCOC(=O)C1CCCN(c2ccc3nnc(CCc4nc(-c5ccccc5C)no4)n3n2)C1 (centres undefined)
931 | Cc1sc(NC(=O)c2ccccc2)nc1-c1ccc2c(c1)NC(=O)C(C)O2 (centres undefined)
802 | CCn1c(C(=O)NCCCN2CCCC(C)C2)cc2c(-c3cccs3)nn(-c3ccccc3)c21 (centres undefined)

RP-LC retention time [s] | Structure (SMILES)
1070 | Cc1sc(C)c(S(=O)(=O)NC2CC2)c1-c1cc(C(F)(F)F)on1
1180 | Cc1sc(-c2noc(C3CCC3)n2)cc1S(=O)(=O)N1CCC(C(=O)N2CCCCCC2)CC1
684 | NS(=O)(=O)c1ccc(NC(=O)C2Cc3ccccc3C(=O)O2)cc1 (centres undefined)
733 | Cc1cccn2cc(C(=O)NCc3ccc(F)cc3F)nc12
859 | Cc1ccc(NC(=O)Cn2nc3c(Oc4ccc(F)cc4)nccn3c2=O)cc1
656 | CCc1ccc(Oc2cc(N3CCC(C(=O)NCCc4ccccn4)CC3)ncn2)cc1
845 | Cc1nc(CC(=O)Nc2ccc(F)cc2Cl)cs1
1350 | Fc1ccc(-c2noc(Cc3nc(-c4cccc(Cl)c4)cs3)n2)cc1
1030 | O=C(NC1CCCC1)N1CCN(c2nc3cccnc3n(Cc3ccccc3)c2=O)CC1
1030 | CCc1ccc(S(=O)(=O)N2CCc3c(c(-c4nnc(-c5ccccc5)o4)nn3C)C2)cc1
641 | CC(=O)Nc1ccc(C(=O)NC2CCN(c3cc(-c4ccc(F)cc4)[nH]n3)C2)cc1 (centres undefined)
1010 | COc1ccc(-c2cnn3c(C)cc(C)nc23)cc1S(=O)(=O)NC(C)c1ccccc1 (centres undefined)
654 | CCn1c(C(=O)NCCCN2CCCCC2C)c(N2CCCC2=O)c2cc(F)ccc21 (centres undefined)
797 | Cc1cc(N2CCN(S(=O)(=O)c3ccc(F)cc3)CC2)nc(NC2CCCCC2)n1
1030 | Cc1ccc(CNC(=O)C2(C)CN(S(=O)(=O)c3ccccc3)CC(=O)N2CCC(C)C)cc1 (centres undefined)
789 | CCC(=O)N1CCc2cc(N3CC(C(=O)Nc4ccc(SC)cc4)CC3=O)ccc21 (centres undefined)
688 | Cn1nc(-c2nnc(-c3ccccc3)o2)c2c1CCN(S(=O)(=O)c1ccc3c(c1)CCC3)C2
826 | CC(=O)c1c(C)n(CC(=O)NCc2cc3c(cc2C)OCCCO3)c2ccccc12
978 | Cc1ccc(S(=O)(=O)NCCc2cn(CC(C)C)c3ncccc23)cc1C
705 | Cc1ccc(C)c(C(=O)NCCc2nc3cccnc3n2C(C)C)c1
840 | O=C(NCc1ccc2c(c1)CCCN2C(=O)C1CC1)c1ccc(Br)o1
688 | CC(C)c1ccc(C(=O)NCC(=O)Nc2nc3ccccc3[nH]2)cc1
662 | Cc1nncn1C1CN(C(=O)Nc2ccc(Cl)cc2C(F)(F)F)C1

RP-LC retention time [s] | Structure (SMILES)
545 | O=C(O)[C@@H]1OCCN(C2CC2)[C@H]1c1ccccc1
1140 | Cc1ccc(Sc2nccnc2N2CCCC(C(=O)NC(C)c3ccccc3)C2)cc1 (centres undefined)
638 | COC1C(=O)N(CC2CC2)C12CCN(C(=O)C1CCOCC1)CC2 (centres undefined)
749 | CCc1ccccc1NS(=O)(=O)c1cc(-c2[nH]ncc2C(=O)N2CCCC2)oc1C
1010 | Cc1ccc(CCC(=O)Nc2nc(-c3ccc4c(c3)NC(=O)C(C)O4)c(C)s2)cc1 (centres undefined)
673 | CCCn1c(CCNC(=O)c2cc(F)ccc2F)nc2cccnc21
570 | CN1CCN(C(CNS(=O)(=O)c2ccccc2F)c2ccsc2)CC1 (centres undefined)
1230 | COc1ccc(NC(=O)Cc2c(C)nn(-c3nc(-c4ccc(Cl)cc4)cs3)c2C)c(OC)c1
617 | CC(=O)N1c2ccc(S(=O)(=O)N3CCC(C(=O)Nc4cccnc4)CC3)cc2CC1C (centres undefined)
652 | CCOC(=O)C1CCN(S(=O)(=O)c2cc3n(c2)CCCNC3=O)CC1
819 | CN(c1nccn2c(=O)n(CC(=O)Nc3ccc(F)c(Cl)c3)nc12)C1CCCCC1
700 | Cc1cc(C)c2c(n1)SCCN2C(=O)CCC(=O)NCc1ccccc1C
887 | COc1cc(-c2noc(CCn3nc(-c4ccc(F)cc4)ccc3=O)n2)cc(OC)c1OC
550 | CCNS(=O)(=O)c1c(C)[nH]c(=O)[nH]c1=O
720 | CCn1cc(CCNC(=O)Nc2cccc(C)c2C)c2cccnc21
784 | Cc1nn2c(CNC(=O)c3n[nH]c4c3CCCC4)c(-c3ccccc3)nc2s1
637 | CN1CCN(C(=O)CSc2nccnc2Sc2ccccc2)CC1
660 | COC(=O)c1c(-c2ccc(Cl)cc2)noc1NCCN1CCN(C)CC1
1020 | COc1ccc(-c2nc(-c3cccc(-c4ccnn4C)c3)no2)cc1OC
598 | CC(C)NC(=O)N1CCCC(c2cccc(C(=O)NCCCN3CCOCC3)c2)C1 (centres undefined)
